Measurements as given in US20230013669A1, “Antibacterial Treatment Using a Cannabinoid and an Active Agent” (priority 2019, published 2023).
“And” between values parts separate entries of the source, which are not always exact repeats. Equal values may be shown once. Read-outs that look alike come from different tables or passages of the source.

Tested on: Klebsiella pneumoniae ATCC 13883 (GN_003 / GN_004)
Test: Synergy of cannabidiol with cell-wall disrupting agent (CBD MIC in combination, FICI)
Format: cell-based
Conditions: for FICI: calculated using MIC of 256 μg/mL for cannabidiol; for MIC: Klebsiella pneumoniae
Description: The compounds were stored short term at 4° C.
Analysis was performed using Microsoft Excel.

SMILES: C=C(C)C1CCC(C)=CC1c1c(O)cc(CCCCC)cc1O (stereo not drawn) [Cannabidiol, 2-[3-methyl-6-(1-methylethenyl)-2-cyclohexen-1-yl]-5-pentyl-1,3-benzenediol]
- CBD MIC with Ceftazidime (Ceftazidime at 64 μg/mL (Table 66), Klebsiella pneumoniae ATCC 700603): 0.001 µg/mL
- CBD MIC with Ceftazidime (Ceftazidime at 128 μg/mL (Table 66), Klebsiella pneumoniae ATCC 700603): 0.001 µg/mL
- CBD MIC with Cefuroxime (Cefuroxime at 32 μg/mL, Klebsiella pneumoniae ATCC 700603): 0.001 µg/mL
- CBD MIC with Colistin (Colistin at 0.5 μg/mL, Klebsiella pneumoniae ATCC 700603): 0.001 µg/mL
- CBD MIC with Colistin (Colistin at 1 μg/mL, Klebsiella pneumoniae ATCC 700603): 0.001 µg/mL
- activity of cannabidiol combined with octapeptin MCC_006442 (Example 4): effective
- activity of cannabidiol in combination with octapeptin MCC_006442 (Example 7): effective
- activity of cannabidiol combined with cefuroxime (Example 12): effective
- activity of cannabidiol combined with colistin (Example 14): effective
- activity of cannabidiol combined with octapeptin MCC_006442 (Example 15): effective
- activity of cannabidiol combined with ceftazidime (Example 16): effective
- activity of cannabidiol combined with cefotetan (Example 17): effective
- activity of cannabidiol combined with aztreonam (Example 18): effective
- activity of cannabidiol combined with octapeptin C4 (Example 21): effective
- activity of cannabidiol in combination with Spero Potentiator SPR741 (Example 22): effective
- activity of cannabidiol in combination with octapeptin FADDI-287 (Example 23): effective
- activity of cannabidiol in combination with MCC_8980 (Example 24): effective
- FICI range (Klebsiella pneumoniae ATCC 700603 (so in the source), CBD with FADDI-287, MIC table (Table 95)): 0.16-4
- FICI range (Klebsiella pneumoniae ATCC 700603 (so in the source), CBD with FADDI-287, Synergy table (Table 97)): 0.16-0.5
- FICI range (Klebsiella pneumoniae ATCC 700603 (so in the source), CBD with MCC_8980, MIC table (Table 99), listed as CBD): 0.31-1.13 and 0.38-1.13
- FICI range (Klebsiella pneumoniae ATCC 700603 (so in the source), CBD with MCC_8980, Synergy table (Table 101), listed as CBD): 0.31 and 0.38
- FICI range (Klebsiella pneumoniae ATCC 700603 (so in the source), CBD with Spero Potentiator SPR741, MIC table (Table 91), listed as CBD): 0.08-1.03 and 0.09-1.03 and 0.16-1.06 and 0.14-1.06
- FICI range (Klebsiella pneumoniae ATCC 700603 (so in the source), CBD with Spero Potentiator SPR741, Synergy table (Table 93), listed as CBD): 0.08-0.27 and 0.09-0.27 and 0.16-0.27 and 0.14-0.26
- CBD MIC with MCC_8980 (Klebsiella pneumoniae ATCC 700603 (so in the source), MCC_8980 at 16 μg/mL, listed as CBD): 32 µg/mL
- CBD MIC with Spero Potentiator SPR741 (Klebsiella pneumoniae ATCC 700603 (so in the source), SPR741 at 8 μg/mL, listed as CBD): 4 µg/mL and 8 µg/mL
- FICI (Klebsiella pneumoniae ATCC 700603 (so in the source), cannabidiol with FADDI-287 at 0.25 μg/mL): 0.2539
- FICI (Klebsiella pneumoniae ATCC 700603 (so in the source), cannabidiol with FADDI-287 at 0.5 μg/mL): 0.5
- FICI (Klebsiella pneumoniae ATCC 700603 (so in the source), cannabidiol with FADDI-287 at 1 μg/mL): 1
- FICI (Klebsiella pneumoniae ATCC 700603 (so in the source), cannabidiol with FADDI-287 at 2 μg/mL): 2
- FICI (Klebsiella pneumoniae ATCC 700603 (so in the source), cannabidiol with FADDI-287 at 4 μg/mL): 4
- FICI (Klebsiella pneumoniae ATCC 700603 (so in the source), cannabidiol with MCC_8980 at 1 μg/mL): 1.016
- FICI (Klebsiella pneumoniae ATCC 700603 (so in the source), cannabidiol with MCC_8980 at 2 μg/mL): 1.031
- FICI (Klebsiella pneumoniae ATCC 700603 (so in the source), cannabidiol with MCC_8980 at 4 μg/mL): 1.0625
- FICI (Klebsiella pneumoniae ATCC 700603 (so in the source), cannabidiol with MCC_8980 at 8 μg/mL): 1.125
- FICI (Klebsiella pneumoniae ATCC 700603 (so in the source), cannabidiol with MCC_8980 at 16 μg/mL): 0.375 and 0.3125
- FICI (Klebsiella pneumoniae ATCC 700603 (so in the source), cannabidiol with SPR741 at 0.5 μg/mL): 1.004
- FICI (Klebsiella pneumoniae ATCC 700603 (so in the source), cannabidiol with SPR741 at 1 μg/mL): 1.016
- FICI (Klebsiella pneumoniae ATCC 700603 (so in the source), cannabidiol with SPR741 at 2 μg/mL): 1.031
- FICI (Klebsiella pneumoniae ATCC 700603 (so in the source), cannabidiol with SPR741 at 2 μg/mL, listed as cannabidiol): 1.016
- FICI (Klebsiella pneumoniae ATCC 700603 (so in the source), cannabidiol with SPR741 at 4 μg/mL): 1.031 and 1.0625
- FICI (Klebsiella pneumoniae ATCC 700603 (so in the source), cannabidiol with SPR741 at 8 μg/mL): 0.09375 and 0.1406 and 0.07812
- MIC (ATCC13883, read-out: CBD MIC with octapeptin MCC_006442 at concentration 2 μg/mL, Example 4, GN_003): 1 µg/mL
- MIC (ATCC13883, read-out: CBD MIC with octapeptin MCC_006442 at concentration 4 μg/mL, Example 4, GN_003): 0.25 µg/mL
- MIC (ATCC 13883 / ATCC 700603, Klebsiella pneumoniae ATCC 700603 (so in the source), FADDI-287 at 0.25 μg/mL, read-out: CBD MIC with FADDI-287): 1 µg/mL
- MIC (ATCC 13883 / ATCC 700603, Klebsiella pneumoniae ATCC 700603 (so in the source), FADDI-287 at 0.5 μg/mL, read-out: CBD MIC with FADDI-287): 0.001 µg/mL
- MIC (ATCC 13883 / ATCC 700603, Klebsiella pneumoniae ATCC 700603 (so in the source), FADDI-287 at 1 μg/mL, read-out: CBD MIC with FADDI-287): 0.001 µg/mL
- MIC (ATCC 13883 / ATCC 700603, Klebsiella pneumoniae ATCC 700603 (so in the source), FADDI-287 at 2 μg/mL, read-out: CBD MIC with FADDI-287): 0.001 µg/mL
- MIC (ATCC 13883 / ATCC 700603, Klebsiella pneumoniae ATCC 700603 (so in the source), FADDI-287 at 4 μg/mL, read-out: CBD MIC with FADDI-287): 0.001 µg/mL
- MIC (ATCC 13883 / ATCC 700603, Klebsiella pneumoniae ATCC 700603 (so in the source), MCC_8980 at 16 μg/mL, read-out: CBD MIC with MCC_8980): 16 µg/mL
- MIC (ATCC 13883 / ATCC 700603, Klebsiella pneumoniae ATCC 700603 (so in the source), Spero SPR206 at 0.007 μg/mL, read-out: CBD MIC with Spero SPR206): ≥ 32 µg/mL
- MIC (ATCC 13883 / ATCC 700603, Klebsiella pneumoniae ATCC 700603 (so in the source), Spero SPR206 at 0.015 μg/mL, read-out: CBD MIC with Spero SPR206): ≥ 32 µg/mL
- MIC (ATCC 13883 / ATCC 700603, Klebsiella pneumoniae ATCC 700603 (so in the source), Spero SPR206 at 0.031 μg/mL, read-out: CBD MIC with Spero SPR206): ≥ 32 µg/mL
- MIC (ATCC 13883 / ATCC 700603, Klebsiella pneumoniae ATCC 700603 (so in the source), Spero SPR206 at 0.062 μg/mL, read-out: CBD MIC with Spero SPR206): ≥ 32 µg/mL
- MIC (ATCC 13883 / ATCC 700603, Klebsiella pneumoniae ATCC 700603 (so in the source), Spero SPR206 at 4 μg/mL, read-out: CBD MIC with Spero SPR206): 0.001 µg/mL
- MIC (ATCC 13883 / ATCC 700603, MCC_6442 at 2 μg/mL, Klebsiella pneumoniae ATCC 700603, read-out: CBD MIC with MCC_6442): 1 µg/mL
- MIC (ATCC 13883 / ATCC 700603, MCC_6442 at 4 μg/mL, Klebsiella pneumoniae ATCC 700603, read-out: CBD MIC with MCC_6442): 0.25 µg/mL
- MIC (ATCC13883 / ATCC700603, read-out: CBD MIC with FADDI-287, Klebsiella pneumoniae ATCC 700603 (so in the source), FADDI-287 at […]): 8 µg/mL
